Earlier results as cited in patent US20140249101A1, “METHODS FOR TREATING HEPATITIS C VIRUS INFECTION” (Gilead Pharmasset LLC, priority 2013, published 2014).
“Also recorded” adds a separate entry of the source.

Tested on: hepatitis C virus (HCV)
Details: ribavirin alone

NC(=O)c1ncn([C@@H]2O[C@H](CO)[C@@H](O)[C@H]2O)n1 [ribavirin, 1-β-d-ribofuranosyl-1H-1,2,4-triazole-3-carboxamide]
sustained virologic response: did not produce any sustained virologic response; also recorded: has not been shown to produce SVR | effect on HCV RNA levels (during or after therapy): did not reduce HCV RNA levels during or after therapy; also recorded: little or no effect on HCV RNA levels | effect on alanine aminotransferase (ALT) levels (during the course of treatment, some patients with CHC): can normalize alanine aminotransferase (ALT) levels transiently; also recorded: normalized alanine aminotransferase (ALT) levels transiently
